Several values for one entry are separate records, joined by “and”; a condition that tells them apart may be missing. Equal entries are not always repeated. Inconclusive results and toxic doses are left out. The calls were made as follows: active = survival T/C of 150% or more; inactive = T/C below 125% in these data.
Test system: P388 leukemia ip, CD2F1 mice, survival T/C
Experiment: NCI In Vivo Anticancer Drug Screen. Data for tumor model P388 Leukemia (intraperitoneal) in CD2F1 (CDF1) mice
Details: endpoint: median survival time, higher = longer survival
In short: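 Mice carrying the transplanted tumor received test compound or vehicle. Survival was recorded in each group, and the value is the treated-group measurement divided by that of the vehicle-treated control group.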

[1] = dose: 60.0 mg/kg/injection, schedule: Q01DX005 (ip), vehicle: saline with Tween-80
[2] = dose: 120.0 mg/kg/injection, schedule: Q01DX005 (ip), vehicle: saline with Tween-80
[3] = dose: 100.0 mg/kg/injection, schedule: Q01DX009 (ip), vehicle: saline with Tween-80
[4] = dose: 200.0 mg/kg/injection, schedule: Q01DX009 (ip), vehicle: saline with Tween-80
[5] = dose: 50.0 mg/kg/injection, schedule: Q01DX009 (ip), vehicle: saline with Tween-80
[6] = dose: 50.0 mg/kg/injection, schedule: Q01DX005 (ip), vehicle: Klucel (hydroxypropylcellulose) (HPC)
[7] = dose: 100.0 mg/kg/injection, schedule: Q01DX005 (ip), vehicle: Klucel (hydroxypropylcellulose) (HPC)
[8] = dose: 200.0 mg/kg/injection, schedule: Q01DX005 (ip), vehicle: Klucel (hydroxypropylcellulose) (HPC)
[9] = dose: 50.0 mg/kg/injection, schedule: Q01DX005 (ip), vehicle: saline
[10] = dose: 100.0 mg/kg/injection, schedule: Q01DX005 (ip), vehicle: saline
[11] = dose: 200.0 mg/kg/injection, schedule: Q01DX005 (ip), vehicle: saline
[12] = dose: 240.0 mg/kg/injection, schedule: Q01DX005 (ip), vehicle: saline with Tween-80

Measured: T/C

CNc1nc2cc(OC)c(OC)cc2c(=O)[nH]1
inactive: dose: 15.0 mg/kg/injection, schedule: Q01DX005 (ip), vehicle: saline with Tween-80 98 % of control | dose: 30.0 mg/kg/injection, schedule: Q01DX005 (ip), vehicle: saline with Tween-80 94 % of control | [1] 91 % of control and 98 % of control | [2] 100 % of control

CC(C)(Nc1ccccc1)c1cccs1
inactive: [3] 109 % of control | [4] 109 % of control | dose: 400.0 mg/kg/injection, schedule: Q01DX009 (ip), vehicle: saline with Tween-80 95 % of control

CC12CCC(N3CCCC3)CC1=CCC1C2CCC2(C)C1CCCN2CCO (stereo not given)
inactive: dose: 12.5 mg/kg/injection, schedule: Q01DX001 (ip), vehicle: Klucel (hydroxypropylcellulose) (HPC) 99 % of control | dose: 25.0 mg/kg/injection, schedule: Q01DX001 (ip), vehicle: Klucel (hydroxypropylcellulose) (HPC) 99 % of control | dose: 50.0 mg/kg/injection, schedule: Q01DX001 (ip), vehicle: Klucel (hydroxypropylcellulose) (HPC) 103 % of control

O=C1OC(O)C(Cl)=C1Cl (stereo not given)
inactive: dose: 0.79 mg/kg/injection, schedule: Q01DX005 (ip), vehicle: saline with Tween-80 111 % of control | dose: 1.56 mg/kg/injection, schedule: Q01DX005 (ip), vehicle: saline with Tween-80 112 % of control | dose: 3.12 mg/kg/injection, schedule: Q01DX005 (ip), vehicle: saline with Tween-80 114 % of control | dose: 6.25 mg/kg/injection, schedule: Q01DX005 (ip), vehicle: saline with Tween-80 120 % of control

CC1=C(c2ccccc2)CS1(=O)=O
inactive: dose: 100.0 mg/kg/injection, schedule: Q04DX002 (ip), vehicle: saline with Tween-80 101 % of control | dose: 200.0 mg/kg/injection, schedule: Q04DX002 (ip), vehicle: saline with Tween-80 99 % of control | dose: 400.0 mg/kg/injection, schedule: Q04DX002 (ip), vehicle: saline with Tween-80 110 % of control

C[CH2][Sn]([CH2]C)([O]S(=O)(=O)CC12CCC(CC1=O)C2(C)C)[O]S(=O)(=O)CC12CCC(CC1=O)C2(C)C
inactive: dose: 1.56 mg/kg/injection, schedule: Q01DX009 (ip), vehicle: saline 102 % of control | dose: 3.12 mg/kg/injection, schedule: Q01DX009 (ip), vehicle: saline 119 % of control

COc1ccc2nc3c(C)c4ccn(Cc5ccc(I)cc5)cc4c(C)c3c2c1
inactive: dose: 13.5 mg/kg/injection, schedule: Q04DX002 (ip), vehicle: saline with Tween-80 116 % of control | dose: 27.0 mg/kg/injection, schedule: Q04DX002 (ip), vehicle: saline with Tween-80 113 % of control | dose: 54.0 mg/kg/injection, schedule: Q04DX002 (ip), vehicle: saline with Tween-80 122 % of control | dose: 108.0 mg/kg/injection, schedule: Q04DX002 (ip), vehicle: saline with Tween-80 105 % of control

c1ccc2c(c1)Nc1ccccc1C1CC21 (stereo not given)
inactive: [5] 96 % of control | [3] 99 % of control | [4] 92 % of control

CCOC(=O)C(=CNc1cc(OC(C)=O)ccc1C)C(=O)OCC
inactive: [6] 110 % of control | [7] 100 % of control | [8] 96 % of control

[Fe].[c-]1[c-][c-][c-](Cn2nnc3ccccc32)[c-]1.[c-]1[c-][c-][cH-][c-]1
inactive: [5] 105 % of control | [3] 102 % of control | [4] 95 % of control

Cc1c(C)n2c(=O)n(-c3ccccc3)c(=O)n2c1=O
inactive: dose: 60.0 mg/kg/injection, schedule: Q01DX005 (ip), vehicle: Klucel (hydroxypropylcellulose) (HPC) 99 % of control | dose: 120.0 mg/kg/injection, schedule: Q01DX005 (ip), vehicle: Klucel (hydroxypropylcellulose) (HPC) 99 % of control | dose: 240.0 mg/kg/injection, schedule: Q01DX005 (ip), vehicle: Klucel (hydroxypropylcellulose) (HPC) 99 % of control

O=C1CCCc2cc3c(nc21)C(=O)CCC3
inactive: [6] 100 % of control | [7] 100 % of control | [8] 109 % of control

COc1ccc(CCNC(=O)CC2CC(=O)N(CCc3ccc(OC)c(OC)c3)C(=O)C2)cc1OC
inactive: [6] 101 % of control | [7] 98 % of control | [8] 101 % of control

COc1ccc2c(c1)-c1c3c(cc4ccnc(c14)C2=O)OCO3
inactive: dose: 2.5 mg/kg/injection, schedule: Q01DX009 (ip), vehicle: saline with Tween-80 107 % of control | dose: 5.0 mg/kg/injection, schedule: Q01DX009 (ip), vehicle: saline with Tween-80 114 % of control | dose: 10.0 mg/kg/injection, schedule: Q01DX009 (ip), vehicle: saline with Tween-80 122 % of control

O=C(O)CNC(CO)C(=O)O (stereo not given)
inactive: dose: 25.0 mg/kg/injection, schedule: Q01DX005 (ip), vehicle: water 100 % of control | dose: 50.0 mg/kg/injection, schedule: Q01DX005 (ip), vehicle: water 100 % of control | dose: 100.0 mg/kg/injection, schedule: Q01DX005 (ip), vehicle: water 95 % of control | dose: 200.0 mg/kg/injection, schedule: Q01DX005 (ip), vehicle: water 89 % of control

CC(=O)C(N)=O
inactive: [9] 98 % of control | [10] 100 % of control | [11] 101 % of control

N#CC(Nc1ncccn1)c1ccccc1 (stereo not given)
inactive: [1] 97 % of control | [2] 94 % of control | [12] 91 % of control

[Cl][Pd]([Cl])([Cl])[Cl]
inactive: dose: 12.5 mg/kg/injection, schedule: Q01DX009 (ip), vehicle: saline 86 % of control | dose: 25.0 mg/kg/injection, schedule: Q01DX009 (ip), vehicle: saline 96 % of control | dose: 50.0 mg/kg/injection, schedule: Q01DX009 (ip), vehicle: saline 95 % of control

CC(C)N(C(C)C)P1N(C(C)(C)C)N=NN1C(C)(C)C
inactive: dose: 12.5 mg/kg/injection, schedule: Q01DX005 (ip), vehicle: Klucel (hydroxypropylcellulose) (HPC) 102 % of control | dose: 25.0 mg/kg/injection, schedule: Q01DX005 (ip), vehicle: Klucel (hydroxypropylcellulose) (HPC) 100 % of control | [6] 102 % of control and 107 % of control

C=CCC1(C)C=C(C)C(=O)C(C)=C1
inactive: [1] 105 % of control | [2] 102 % of control | [12] 104 % of control

CN(C)C1CS(=O)(=O)OC2=C1CCSc1ccccc12 (stereo not given)
inactive: [1] 102 % of control | [2] 99 % of control | [12] 100 % of control

N#CNc1nnnn1-c1ccc(-n2nnnc2NC#N)cc1 (tested in a mixture with another compound)
inactive: dose: 100.0 mg/kg/injection, schedule: Q04DX003 (ip), vehicle: Klucel (hydroxypropylcellulose) (HPC) 92 % of control | dose: 200.0 mg/kg/injection, schedule: Q04DX003 (ip), vehicle: Klucel (hydroxypropylcellulose) (HPC) 91 % of control | dose: 400.0 mg/kg/injection, schedule: Q04DX003 (ip), vehicle: Klucel (hydroxypropylcellulose) (HPC) 90 % of control

[Mn].[NH-]C(CSSCC(N)C(=O)O)C(=O)O (stereo not given)
inactive: dose: 100.0 mg/kg/injection, schedule: Q04DX003 (ip), vehicle: saline 97 % of control | dose: 200.0 mg/kg/injection, schedule: Q04DX003 (ip), vehicle: saline 114 % of control | dose: 400.0 mg/kg/injection, schedule: Q04DX003 (ip), vehicle: saline 106 % of control

Cc1c(-c2ccc(Cl)cc2)n[nH]c1-c1[nH]nc(-c2ccc(Cl)cc2)c1C
inactive: [1] 105 % of control | [2] 105 % of control | [12] 94 % of control

N#CCCN(CCC#N)C(CCC(=O)O)C(=O)O (stereo not given)
inactive: [9] 93 % of control | [10] 100 % of control | [11] 101 % of control

CN(C=O)c1ccc(Cl)cc1
inactive: dose: 100.0 mg/kg/injection, schedule: Q04DX002 (ip), vehicle: saline 100 % of control | dose: 200.0 mg/kg/injection, schedule: Q04DX002 (ip), vehicle: saline 97 % of control | dose: 400.0 mg/kg/injection, schedule: Q04DX002 (ip), vehicle: saline 100 % of control

O=C(CC(=O)N1CCN(c2ccccc2)CC1)N1CCN(c2ccccc2)CC1
inactive: dose: 25.0 mg/kg/injection, schedule: Q01DX009 (ip), vehicle: saline with Tween-80 95 % of control | [5] 97 % of control | [3] 98 % of control | dose: 100.0 mg/kg/injection, schedule: Q01DX009 (ip), vehicle: saline 93 % of control

COC(=O)[CH](C[N+](=O)[O-])[Hg][Cl] (stereo not given)
inactive: dose: 3.12 mg/kg/injection, schedule: Q01DX009 (ip), vehicle: saline with Tween-80 100 % of control | dose: 6.25 mg/kg/injection, schedule: Q01DX009 (ip), vehicle: saline with Tween-80 100 % of control | dose: 12.5 mg/kg/injection, schedule: Q01DX009 (ip), vehicle: saline with Tween-80 95 % of control

C/C=C(\C)C(=O)OC1C2C(C)=CC(=O)C(O)C2(C)C2C3(O)OCC24C1OC(=O)C(OC(C)=O)C4C(C)C3O (stereo not given)
active: dose: 2.5 mg/kg/injection, schedule: Q01DX009 (ip), vehicle: saline 155 % of control | dose: 5.0 mg/kg/injection, schedule: Q01DX009 (ip), vehicle: saline 163 % of control
